According to PMC7918738, “Microtubule Destabilizing Sulfonamides as an Alternative to Taxane-Based Chemotherapy” (International Journal of Molecular Sciences, 2021):
“And” between values parts separate entries of the source, which are not always exact repeats. Equal entries are not always repeated.

Columns and labels:
Type in all cases: cell-based, human
[1] = system: MCF7 cells; assay: Annexin V-FITC/PI cell death quantification in MCF7; details: 38 600 nM, 42 50 nM, 45 400 nM; for Annexin V-FITC/PI 72 h LA (late apoptosis) / Annexin V-FITC/PI 72 h Necrosis / Annexin V-FITC/PI 72 h EA (early apoptosis) / Annexin V-FITC/PI 72 h Live / Annexin V-FITC/PI 6 Days LA (late apoptosis) / Annexin V-FITC/PI 6 Days Necrosis / Annexin V-FITC/PI 6 Days EA (early apoptosis) / Annexin V-FITC/PI 6 Days Live: CA-4 50 nM; for Annexin V-FITC/PI 6 Days LA (late apoptosis) / Annexin V-FITC/PI 6 Days Necrosis / Annexin V-FITC/PI 6 Days EA (early apoptosis) / Annexin V-FITC/PI 6 Days Live: MCF7, 6 days
Protocol: (§1) To determine whether the cytotoxic/antiproliferative effect of the MDS was due to apoptosis induction, cells were treated with variable concentrations of the drug for 72 h or 6 days, stained with Annexin V-FITC (AnV) and propidium iodide (PI), and analyzed by flow cytometry. Double negative cells (AnV^−/PI^−) were classified as live cells (L), cells positive for AnV and negative for PI (AnV^+/PI^−) were considered in Early Apoptosis (EA), cells negative for AnV and positive for PI (AnV^−/PI^+) were considered necrotic (N), and double-positive cells (AnV^+/PI^+) as Late Apoptosis (LA). In all cases, the compounds were used at the same concentrations previously used in cell cycle studies (Table 5).
(§2) MCF7, SKOV-3, and HeLa apoptotic cells were quantified using an Annexin V-FITC/PI apoptosis detection kit (Immunostep, Salamanca, Spain) according to the manufacturer’s guidelines. 1.5 mL/well of cells in the exponential growth phase at 2·10^4 cells/mL were seeded onto 12-well plates and left to attach overnight. After 24 h incubation, cells were treated with selected compounds. After 72 h (MCF7, SKOV-3, and HeLa) and 6 days (MCF7) post-treatment, attached and floating cells of treated and untreated wells were collected, centrifuged, resuspended in Annexin V binding buffer, and stained with Annexin V-FITC/PI. Cells were then incubated in darkness at room temperature for 15 min and a total of 30,000 cells were acquired and analyzed using the BD Accuri™ C6 Plus Flow Cytometer and Software (version 1.0.264.21, BD Biosciences, San José, CA, USA), respectively. Compounds were dissolved in DMSO and the final solvent concentration never exceeded 0.5% (v/v). Control wells included cells with 0.5% (v/v) DMSO.

[2] = system: HeLa cells; assay: Annexin V-FITC/PI cell death quantification in HeLa; details: 38 600 nM, 42 50 nM, 45 400 nM
Protocol: as §1, §2

[3] = system: HeLa cells; assay: Cell cycle analysis in HeLa (PI staining, flow cytometry); details: 24 h; 38 600 nM, 42 50 nM, 45 400 nM
Protocol: (§3) The effect of the lead MDS on the cell cycle of MCF7, SKOV3, and HeLa cells was analyzed in time-course experiments at 24, 48, and 72 h post-treatment by DNA staining and flow cytometry quantification. The working concentration for each compound (600 nM for 38, 50 nM for 42, and 400 nM for 45) was established at the complete inhibition of cell proliferation in view of individually assays run in parallel for each cell line.
(§4) Cell cycle analysis was performed in MCF7, SKOV-3, and HeLa cells by quantifying the DNA content by flow cytometry. Cells in the exponential growth phase at 2·10^4 cells/mL were seeded in 24-well plates (1 mL/well). After 24 h incubation, cells were treated with different concentrations of the selected compounds and the effect of treated and untreated cells was measured 24, 48, and 72 h post-treatment. Live and dead cells were collected and fixed in ice-cold ethanol/PBS (7:3) and stored at 4 °C for later use. Cells were rehydrated with PBS, treated with 100 µg/mL RNase A (Sigma-Aldrich Co., St. Louis, MO, USA) and stained overnight in darkness at room temperature with 50 µg/mL PI (Sigma-Aldrich Co.). Cell cycle profiles were then analyzed by flow cytometry using BD Accuri™ C6 Plus Flow Cytometer (BD Biosciences, San José, CA, USA). Data were analyzed with BD Accuri™ C6 Software (version 1.0.264.21, BD Biosciences, San José, CA, USA) and compared to control cells. Compounds were dissolved in DMSO and the final solvent concentration never exceeded 0.5% (v/v). Control wells included cells with 0.5% (v/v) DMSO.

[4] = system: SKOV3 cells; assay: Cell cycle analysis in SKOV3 (PI staining, flow cytometry); details: 38 600 nM, 42 50 nM, 45 400 nM; for SKOV3 cells at G2/M phase: 24 h
Protocol: as §3, §4

COc1ccc(/C=C\c2cc(OC)c(OC)c(OC)c2)cc1O [Combretastatin A-4, reference compound] was tested, and the “Annexin V-FITC/PI 72 h LA (late apoptosis)” value ([1]; MCF7, 72 h) was 3.3%, the “Annexin V-FITC/PI 72 h Necrosis” value ([1]; MCF7, 72 h) was 6.7% and the “Annexin V-FITC/PI 72 h EA (early apoptosis)” value (shortened to “Annexin V-FITC/PI 72 h EA”) ([1]; MCF7, 72 h, listed as CA-4) was 32% and 31.7%. The “Annexin V-FITC/PI 72 h Live” value ([1]; MCF7, 72 h, listed as CA-4) was 58% and 58.3%, the “Annexin V-FITC/PI 6 Days LA (late apoptosis)” value (shortened to “Annexin V-FITC/PI 6 Days LA”) [1] was 2.7% and the “Annexin V-FITC/PI 6 Days Necrosis” value [1] was 0.4%. The “Annexin V-FITC/PI 6 Days EA (early apoptosis)” value (“Annexin V-FITC/PI 6 Days EA” for short) ([1]; listed as CA-4) was 52.4% and the “Annexin V-FITC/PI 6 Days Live” value ([1]; listed as CA-4) was 44.5%.
For CNc1ccc(S(=O)(=O)N(C)c2cc(OC)c(OC)c(OC)c2)cc1 [Compound 38], the “Annexin V-FITC/PI 72 h EA” value [2] was 1.1%, the “Annexin V-FITC/PI 72 h LA (late apoptosis, double-positives)” value [2] was 87.6% and the “Annexin V-FITC/PI 72 h Necrosis” value [2] was 10.6%. The “Annexin V-FITC/PI 72 h EA” value ([1]; MCF7, 72 h) was 29%, the “Annexin V-FITC/PI 72 h LA (late apoptosis)” value ([1]; MCF7, 72 h) was 5.4% and the “Annexin V-FITC/PI 72 h Live” value ([1]; MCF7, 72 h) was 60% and 60.5%. The “Annexin V-FITC/PI 72 h Necrosis” value ([1]; MCF7, 72 h) was 5.1%, the “Annexin V-FITC/PI 6 Days EA” value [1] was 45.0% and the “Annexin V-FITC/PI 6 Days LA” value [1] was 2.7%. For the same compound, the “Annexin V-FITC/PI 6 Days Live” value [1] was 52.0%, the “Annexin V-FITC/PI 6 Days Necrosis” value [1] was 0.3% and the “HeLa cells at G2/M phase” value [3] was 80%. The “SKOV3 cells at G2/M phase” value [4] was 44%, the “SKOV3 cells at SubG0/G1” value ([4]; 48 h) was 35% and the “SKOV3 cells at SubG0/G1” value ([4]; 72 h) was 43%.
COc1ccc(S(=O)(=O)N(C)c2cc(OC)c(OC)c(OC)c2)cc1N [Compound 42] was tested, and the “Annexin V-FITC/PI 72 h EA” value [2] was 1.4%, the “Annexin V-FITC/PI 72 h LA (late apoptosis, double-positives)” value [2] was 82.0% and the “Annexin V-FITC/PI 72 h Necrosis” value [2] was 9.4%. The “Phosphatidylserine exposure (Annexin V-positive MCF7 cells)” value ([1]; MCF7, 72 h) was 11%, the “Annexin V-FITC/PI 72 h EA” value ([1]; MCF7, 72 h) was 9% and 8.5% and the “Annexin V-FITC/PI 72 h LA (late apoptosis)” value ([1]; MCF7, 72 h) was 2.3%. For the same compound, the “Annexin V-FITC/PI 72 h Live” value ([1]; MCF7, 72 h) was 88% and 87.7%, the “Annexin V-FITC/PI 72 h Necrosis” value ([1]; MCF7, 72 h) was 1.4% and the “Annexin V-FITC/PI 6 Days EA” value [1] was 19% and 18.9%. The “Annexin V-FITC/PI 6 Days LA” value [1] was 1.7%, the “Annexin V-FITC/PI 6 Days Live” value [1] was 79% and 79.1% and the “Annexin V-FITC/PI 6 Days Necrosis” value [1] was 0.3%. The “HeLa cells at G2/M phase” value [3] was 44%, the “SKOV3 cells at G2/M phase” value [4] was 44% and the “SKOV3 cells at SubG0/G1” value ([4]; 48 h) was 34%. The “SKOV3 cells at SubG0/G1” value ([4]; 72 h) was 53%.
COc1ccc(S(=O)(=O)N(Cc2ccccc2)c2cc(OC)c(OC)c(OC)c2)cc1N [Compound 45] was tested, and the “Annexin V-FITC/PI 72 h EA” value [2] was 1.5%, the “Annexin V-FITC/PI 72 h LA (late apoptosis, double-positives)” value [2] was 84.9% and the “Annexin V-FITC/PI 72 h Necrosis” value [2] was 12.7%. For the same compound, the “Annexin V-FITC/PI 72 h EA” value ([1]; MCF7, 72 h) was 20% and 20.1%, the “Annexin V-FITC/PI 72 h LA (late apoptosis)” value ([1]; MCF7, 72 h) was 7.5% and the “Annexin V-FITC/PI 72 h Live” value ([1]; MCF7, 72 h) was 71% and 70.5%. The “Annexin V-FITC/PI 72 h Necrosis” value ([1]; MCF7, 72 h) was 1.9%, the “Annexin V-FITC/PI 6 Days EA” value [1] was 39.3% and the “Annexin V-FITC/PI 6 Days LA” value [1] was 3.8%. For the same compound, the “Annexin V-FITC/PI 6 Days Live” value [1] was 56.7%, the “Annexin V-FITC/PI 6 Days Necrosis” value [1] was 0.3% and the “HeLa cells at G2/M phase” value [3] was 80%. For the same compound, the “SKOV3 cells at G2/M phase” value [4] was 44%, the “SKOV3 cells at SubG0/G1” value ([4]; 48 h) was 46% and the “SKOV3 cells at SubG0/G1” value ([4]; 72 h) was 63%.
